Measured values reported in ChEMBL document CHEMBL5715954, “Silencing c-Myc translation as a therapeutic strategy through targeting PI3Kδ and CK1ε in hematological malignancies” (Blood, 2017).

What was measured:
Parameters in all cases: scale not given: the % may be the effect or the level left
[1] = target: CDK9/cyclin T1 (Homo sapiens) (UniProt O60563+P50750); test: Inhibition of human CDK9/cyclin T1 assessed as enzyme activity at 1 uM using KTFCGTPEYLAPEVRREPRILSEEEQEMFRDFDYIADWC as substrate preincubated for 20 mins followed by [gamma-33P]-ATP addition and measured after 120 mins by radiometric Hot-SpotSM Kinase assay relative to control; type: protein-complex assay
[2] = target: Mitogen-activated protein kinase kinase kinase kinase 4 (Homo sapiens) (UniProt O95819); test: Inhibition of human HGK assessed as enzyme activity at 1 uM using myelin basic protein as substrate preincubated for 20 mins followed by [gamma-33P]-ATP addition and measured after 120 mins by radiometric Hot-SpotSM Kinase assay relative to control
Sequence of Mitogen-activated protein kinase kinase kinase kinase 4 (Homo sapiens) (O95819 2-1239 limits assumed): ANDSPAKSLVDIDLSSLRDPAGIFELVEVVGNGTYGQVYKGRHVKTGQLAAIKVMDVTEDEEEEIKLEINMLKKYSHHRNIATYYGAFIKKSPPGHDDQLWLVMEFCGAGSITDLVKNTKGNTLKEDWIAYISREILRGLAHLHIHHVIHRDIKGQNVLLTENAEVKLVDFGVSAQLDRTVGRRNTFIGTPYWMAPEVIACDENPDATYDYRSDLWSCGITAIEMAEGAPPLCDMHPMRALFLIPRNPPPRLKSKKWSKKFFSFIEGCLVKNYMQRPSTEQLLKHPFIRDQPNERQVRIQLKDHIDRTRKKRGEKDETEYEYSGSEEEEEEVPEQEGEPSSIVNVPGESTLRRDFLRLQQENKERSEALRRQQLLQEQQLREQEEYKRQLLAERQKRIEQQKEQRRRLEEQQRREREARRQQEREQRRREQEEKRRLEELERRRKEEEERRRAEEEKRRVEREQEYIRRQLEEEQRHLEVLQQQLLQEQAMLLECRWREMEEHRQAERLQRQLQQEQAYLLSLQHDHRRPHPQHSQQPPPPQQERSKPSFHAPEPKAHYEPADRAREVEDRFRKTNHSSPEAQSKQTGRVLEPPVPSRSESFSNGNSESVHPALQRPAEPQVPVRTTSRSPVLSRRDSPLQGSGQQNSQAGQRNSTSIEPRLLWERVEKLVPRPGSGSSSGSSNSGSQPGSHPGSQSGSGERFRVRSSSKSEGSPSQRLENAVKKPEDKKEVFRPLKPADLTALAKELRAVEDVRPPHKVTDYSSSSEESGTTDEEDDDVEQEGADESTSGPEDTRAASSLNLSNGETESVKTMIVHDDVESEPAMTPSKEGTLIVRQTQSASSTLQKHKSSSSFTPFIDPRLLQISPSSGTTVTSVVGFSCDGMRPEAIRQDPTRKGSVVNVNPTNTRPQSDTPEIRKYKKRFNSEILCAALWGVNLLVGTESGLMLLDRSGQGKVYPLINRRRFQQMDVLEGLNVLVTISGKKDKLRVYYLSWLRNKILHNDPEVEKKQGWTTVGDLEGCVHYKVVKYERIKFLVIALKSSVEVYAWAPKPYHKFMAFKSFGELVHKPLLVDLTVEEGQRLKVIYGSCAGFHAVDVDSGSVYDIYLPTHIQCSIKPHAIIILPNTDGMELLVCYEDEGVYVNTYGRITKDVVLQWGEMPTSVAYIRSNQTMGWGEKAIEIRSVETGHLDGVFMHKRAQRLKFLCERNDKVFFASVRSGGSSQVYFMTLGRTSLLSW

[3] = target: Serine/threonine-protein kinase PLK1 (Homo sapiens) (UniProt P53350); test: Inhibition of human PLK1 assessed as enzyme activity at 1 uM using casein as substrate preincubated for 20 mins followed by [gamma-33P]-ATP addition and measured after 120 mins by radiometric Hot-SpotSM Kinase assay relative to control
Sequence of Serine/threonine-protein kinase PLK1 (Homo sapiens) (P53350 whole entry): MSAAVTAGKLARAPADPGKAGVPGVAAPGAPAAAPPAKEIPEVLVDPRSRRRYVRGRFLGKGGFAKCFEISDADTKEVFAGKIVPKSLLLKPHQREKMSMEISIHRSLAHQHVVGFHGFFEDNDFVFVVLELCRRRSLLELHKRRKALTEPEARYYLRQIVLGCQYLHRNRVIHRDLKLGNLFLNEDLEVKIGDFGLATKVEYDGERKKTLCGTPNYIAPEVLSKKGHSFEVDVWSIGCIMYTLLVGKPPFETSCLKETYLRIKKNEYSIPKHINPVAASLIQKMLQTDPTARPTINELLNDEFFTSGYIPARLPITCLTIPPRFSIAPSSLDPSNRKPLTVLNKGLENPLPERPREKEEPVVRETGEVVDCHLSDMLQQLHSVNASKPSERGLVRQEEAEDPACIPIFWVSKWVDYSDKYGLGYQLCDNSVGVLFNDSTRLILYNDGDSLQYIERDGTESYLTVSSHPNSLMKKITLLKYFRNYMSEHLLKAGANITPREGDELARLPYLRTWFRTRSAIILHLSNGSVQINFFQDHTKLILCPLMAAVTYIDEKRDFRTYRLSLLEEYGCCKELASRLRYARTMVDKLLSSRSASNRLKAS

[4] = target: T1, Serine/threonine-protein kinase DCLK1 (Homo sapiens) (UniProt O15075); test: Inhibition of human DCAMKL1 assessed as enzyme activity at 1 uM using KKLNRTLSFAEPG as substrate preincubated for 20 mins followed by [gamma-33P]-ATP addition and measured after 120 mins by radiometric Hot-SpotSM Kinase assay relative to control
T1 sequence (whole entry): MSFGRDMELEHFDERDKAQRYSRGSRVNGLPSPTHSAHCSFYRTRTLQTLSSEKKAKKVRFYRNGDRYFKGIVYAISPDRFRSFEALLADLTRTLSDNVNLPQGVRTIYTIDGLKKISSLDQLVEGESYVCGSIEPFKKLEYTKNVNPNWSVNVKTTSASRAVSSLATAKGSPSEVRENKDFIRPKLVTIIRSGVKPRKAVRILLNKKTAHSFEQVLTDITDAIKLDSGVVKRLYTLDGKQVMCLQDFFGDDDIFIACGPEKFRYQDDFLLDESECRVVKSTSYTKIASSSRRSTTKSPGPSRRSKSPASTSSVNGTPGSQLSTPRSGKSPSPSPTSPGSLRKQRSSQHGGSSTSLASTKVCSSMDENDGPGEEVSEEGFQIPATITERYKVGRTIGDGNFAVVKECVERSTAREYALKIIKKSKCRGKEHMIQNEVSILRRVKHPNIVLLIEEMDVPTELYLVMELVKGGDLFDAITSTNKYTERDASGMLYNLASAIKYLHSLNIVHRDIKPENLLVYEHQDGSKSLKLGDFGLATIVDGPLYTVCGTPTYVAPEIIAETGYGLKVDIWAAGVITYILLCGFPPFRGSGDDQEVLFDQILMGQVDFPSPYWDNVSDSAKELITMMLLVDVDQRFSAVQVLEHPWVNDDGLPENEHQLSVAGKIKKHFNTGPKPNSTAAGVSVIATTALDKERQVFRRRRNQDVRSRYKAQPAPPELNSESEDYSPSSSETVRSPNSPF

[5] = target: T2, Serine/threonine-protein kinase NLK (Homo sapiens) (UniProt Q9UBE8); test: Inhibition of human NLK assessed as enzyme activity at 1 uM using myelin basic protein as substrate preincubated for 20 mins followed by [gamma-33P]-ATP addition and measured after 120 mins by radiometric Hot-SpotSM Kinase assay relative to control
T2 sequence (whole entry): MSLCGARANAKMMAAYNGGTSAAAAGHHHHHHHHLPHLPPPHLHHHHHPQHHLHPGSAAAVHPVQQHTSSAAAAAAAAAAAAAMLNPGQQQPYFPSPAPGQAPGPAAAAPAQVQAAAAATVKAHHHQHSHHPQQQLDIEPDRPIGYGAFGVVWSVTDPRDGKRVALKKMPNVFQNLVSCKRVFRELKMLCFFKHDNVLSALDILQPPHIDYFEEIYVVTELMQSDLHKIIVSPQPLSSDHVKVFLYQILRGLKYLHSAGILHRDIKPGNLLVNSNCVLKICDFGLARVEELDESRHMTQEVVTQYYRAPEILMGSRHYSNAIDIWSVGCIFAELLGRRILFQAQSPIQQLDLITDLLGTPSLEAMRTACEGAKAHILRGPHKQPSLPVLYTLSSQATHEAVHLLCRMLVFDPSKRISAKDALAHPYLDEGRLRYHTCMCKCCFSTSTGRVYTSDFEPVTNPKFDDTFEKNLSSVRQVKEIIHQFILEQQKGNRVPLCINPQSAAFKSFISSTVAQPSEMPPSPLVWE

[6] = target: T3, Dual serine/threonine and tyrosine protein kinase (Homo sapiens) (UniProt Q6XUX3); test: Inhibition of human RIPK5 assessed as enzyme activity at 1 uM using myelin basic protein as substrate preincubated for 20 mins followed by [gamma-33P]-ATP addition and measured after 120 mins by radiometric Hot-SpotSM Kinase assay relative to control
T3 sequence (whole entry): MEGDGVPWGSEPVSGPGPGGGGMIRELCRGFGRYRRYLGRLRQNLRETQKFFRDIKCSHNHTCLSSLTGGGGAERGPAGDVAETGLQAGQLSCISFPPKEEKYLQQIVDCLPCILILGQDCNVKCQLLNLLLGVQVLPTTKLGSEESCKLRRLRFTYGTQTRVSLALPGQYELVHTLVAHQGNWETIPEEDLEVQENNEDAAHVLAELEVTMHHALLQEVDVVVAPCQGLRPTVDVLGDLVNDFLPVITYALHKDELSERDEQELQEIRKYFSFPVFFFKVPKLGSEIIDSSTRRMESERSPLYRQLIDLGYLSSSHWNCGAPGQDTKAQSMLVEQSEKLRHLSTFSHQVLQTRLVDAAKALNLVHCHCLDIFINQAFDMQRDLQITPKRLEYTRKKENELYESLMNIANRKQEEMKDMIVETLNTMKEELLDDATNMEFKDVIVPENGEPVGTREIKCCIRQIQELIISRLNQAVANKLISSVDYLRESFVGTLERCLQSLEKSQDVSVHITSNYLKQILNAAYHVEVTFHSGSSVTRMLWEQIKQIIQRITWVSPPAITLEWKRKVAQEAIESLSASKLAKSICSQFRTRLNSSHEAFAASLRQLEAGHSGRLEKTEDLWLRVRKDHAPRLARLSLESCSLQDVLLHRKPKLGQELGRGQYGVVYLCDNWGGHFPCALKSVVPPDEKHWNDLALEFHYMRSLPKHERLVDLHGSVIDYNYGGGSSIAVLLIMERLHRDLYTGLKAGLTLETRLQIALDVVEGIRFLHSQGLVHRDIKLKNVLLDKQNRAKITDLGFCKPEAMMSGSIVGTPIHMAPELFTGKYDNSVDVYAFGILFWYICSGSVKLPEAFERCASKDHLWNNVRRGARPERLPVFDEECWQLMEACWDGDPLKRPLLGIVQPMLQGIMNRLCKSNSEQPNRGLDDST

[7] = target: Casein kinase II subunit alpha (Homo sapiens) (UniProt P68400); test: Inhibition of human CK2a assessed as enzyme activity at 1 uM using RRRDDDSDDD as substrate preincubated for 20 mins followed by [gamma-33P]-ATP addition and measured after 120 mins by radiometric Hot-SpotSM Kinase assay relative to control
Sequence of Casein kinase II subunit alpha (Homo sapiens) (P68400 whole entry, looked up): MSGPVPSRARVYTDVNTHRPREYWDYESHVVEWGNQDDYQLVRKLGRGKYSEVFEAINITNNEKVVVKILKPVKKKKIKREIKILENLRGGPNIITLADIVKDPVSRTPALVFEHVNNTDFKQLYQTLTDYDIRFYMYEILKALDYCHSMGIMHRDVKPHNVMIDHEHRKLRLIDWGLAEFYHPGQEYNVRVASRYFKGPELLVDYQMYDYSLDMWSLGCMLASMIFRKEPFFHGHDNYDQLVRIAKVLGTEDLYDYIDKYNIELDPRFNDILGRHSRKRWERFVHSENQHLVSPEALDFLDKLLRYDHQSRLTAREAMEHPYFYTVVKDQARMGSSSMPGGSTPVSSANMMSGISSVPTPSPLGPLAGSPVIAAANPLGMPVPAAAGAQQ

| Compound | Activity [1] [%] | Activity [2] [%] | Activity [3] [%] | Activity [4] [%] | Activity [5] [%] | Activity [6] [%] | Activity [7] [%] |
| --- | --- | --- | --- | --- | --- | --- | --- |
| C[C@H](Nc1ncnc2nc[nH]c12)c1cc2cccc(Cl)c2c(=O)n1-c1ccccc1 | 96.2 | 97.1 | 94 | 89.4 | 96.2 | 96 | 83.6 |
| CC[C@H](Nc1ncnc2[nH]cnc12)c1nc2cccc(F)c2c(=O)n1-c1ccccc1 | 89.5 | 93 | 95.4 | 89.3 | 103 | 90 | 96 |
| CC(C)Oc1ccc(-c2nn([C@@H](C)c3oc4ccc(F)cc4c(=O)c3-c3cccc(F)c3)c3ncnc(N)c23)cc1F [UMBRALISIB] | 98.5 | 97.1 | 98.4 | 88.3 | 98.3 | 90.7 | 78.2 |
